In ChEMBL document CHEMBL1201862, “PubChem BioAssay data set” (2004):
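Cells were grown in 96-well plates and exposed to each compound for 48 hours at five concentrations; endpoints were interpolated linearly between bracketing concentrations, or set to the highest concentration if not reached. GI50 marks 50% less growth.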 Activity calls are given as the source filed them. Cut-off read from the data, not from the text of the source: active = GI50 up to about 1.1 µM and inactive = higher.

Assays:
Test in all cases: inhibition of tumour cell growth, NCI panel, 48 h
HL-60 = test system: HL-60
HOP-62 = test system: HOP-62
RPMI-8226 = test system: RPMI-8226
Hs-578T = test system: Hs-578T
SF-295 = test system: SF-295
HCT-116 = test system: HCT-116
NCI-H226 = test system: NCI-H226
SNB-19 = test system: SNB-19
MOLT-4 = test system: MOLT-4
NCI/ADR-RES = test system: NCI/ADR-RES
SF-268 = test system: SF-268
SW-620 = test system: SW-620
PC-3 = test system: PC-3
DU-145 = test system: DU-145
HT-29 = test system: HT-29
NCI-H460 = test system: NCI-H460
SF-539 = test system: SF-539
UO-31 = test system: UO-31
T47D = test system: T47D
SK-MEL-2 = test system: SK-MEL-2

Measured: GI50

COC(=O)c1csc(-c2nc(CCNC(=O)OC(C)(C)C)sc2Br)n1
inactive: HL-60 > 100 µM | HOP-62 > 100 µM | RPMI-8226 99.3 µM | Hs-578T > 100 µM | SF-295 > 100 µM | HCT-116 > 100 µM | NCI-H226 > 100 µM | SNB-19 > 100 µM | MOLT-4 > 100 µM | NCI/ADR-RES > 100 µM | SF-268 > 100 µM | SW-620 > 100 µM | PC-3 55.7 µM | DU-145 > 100 µM | HT-29 > 100 µM | NCI-H460 > 100 µM | SF-539 > 100 µM | UO-31 > 100 µM

CCCCN(CCCC)C(=C(C(Cl)=C(Cl)Cl)[N+](=O)[O-])N(CCCC)CCCC
inactive: HOP-62 > 100 µM | RPMI-8226 18.7 µM | SF-295 > 100 µM | HCT-116 67.9 µM | NCI-H226 > 100 µM | SNB-19 > 100 µM | NCI/ADR-RES > 100 µM | SF-268 > 100 µM | PC-3 57 µM | DU-145 > 100 µM | T47D 73.8 µM | SK-MEL-2 80.2 µM | NCI-H460 89.5 µM | SF-539 > 100 µM | UO-31 > 100 µM

COc1cccc(NC(=O)CC(=O)Nc2cccc(OC)c2)c1
inactive: HL-60 > 100 µM | HOP-62 > 100 µM | RPMI-8226 > 100 µM | Hs-578T > 100 µM | SF-295 > 100 µM | HCT-116 > 100 µM | NCI-H226 > 100 µM | SNB-19 > 100 µM | MOLT-4 > 100 µM | NCI/ADR-RES > 100 µM | SF-268 > 100 µM | SW-620 > 100 µM | PC-3 > 100 µM | DU-145 > 100 µM | HT-29 > 100 µM | SK-MEL-2 > 100 µM | NCI-H460 > 100 µM | SF-539 > 100 µM | UO-31 > 100 µM

CC1NOC(NS(=O)(=O)c2ccc(/N=N/c3c(O)c(C(=O)O)cc4ccccc34)cc2)C1C (stereo not given)
inactive: HL-60 > 100 µM | HOP-62 > 100 µM | RPMI-8226 > 100 µM | Hs-578T > 100 µM | SF-295 > 100 µM | HCT-116 > 100 µM | NCI-H226 > 100 µM | SNB-19 59.2 µM | MOLT-4 > 100 µM | NCI/ADR-RES > 100 µM | SF-268 > 100 µM | SW-620 > 100 µM | PC-3 > 100 µM | HT-29 > 100 µM | SK-MEL-2 > 100 µM | NCI-H460 > 100 µM | SF-539 > 100 µM | UO-31 55 µM

c1cc2sc1CSCCSCCSC2
inactive: HL-60 > 100 µM | HOP-62 > 100 µM | SF-295 > 100 µM | HCT-116 > 100 µM | SNB-19 > 100 µM | MOLT-4 > 100 µM | NCI/ADR-RES > 100 µM | SF-268 > 100 µM | SW-620 > 100 µM | PC-3 > 100 µM | DU-145 > 100 µM | HT-29 > 100 µM | T47D > 100 µM | NCI-H460 > 100 µM | SF-539 > 100 µM | UO-31 > 100 µM

COc1cccc(C(C#N)NNC(=O)c2c(Cl)c(Cl)c(Cl)c(Cl)c2-c2nc3cc(C(=O)c4ccccc4)ccc3[nH]2)c1O (stereo not given)
inactive: HL-60 3.59 µM | HOP-62 2.03 µM | RPMI-8226 3.55 µM | SF-295 1.74 µM | HCT-116 4 µM | NCI-H226 3 µM | SNB-19 4.63 µM | MOLT-4 2.78 µM | NCI/ADR-RES 2.54 µM | SW-620 6.01 µM | PC-3 3.62 µM | DU-145 6.4 µM | HT-29 4.91 µM | T47D 2.79 µM | SK-MEL-2 4.05 µM | SF-539 2.63 µM | UO-31 6.84 µM

C/C=C\C(CC(=O)O)CC(=O)NCCC1CN(S(=O)(=O)C(F)(F)F)c2ccccc21 (stereo not given)
inactive: HOP-62 > 100 µM | RPMI-8226 > 100 µM | Hs-578T > 100 µM | SF-295 > 100 µM | HCT-116 > 100 µM | SNB-19 > 100 µM | MOLT-4 > 100 µM | NCI/ADR-RES > 100 µM | SF-268 > 100 µM | SW-620 > 100 µM | PC-3 > 100 µM | DU-145 > 100 µM | HT-29 > 100 µM | SK-MEL-2 > 100 µM | NCI-H460 > 100 µM | UO-31 > 100 µM

CCCCCCCCOP(=O)(O)OP(=O)(O)OCC1OC(n2ccc(N)nc2=O)C(O)C1O (stereo not given)
inactive: HL-60 > 100 µM | HOP-62 > 100 µM | RPMI-8226 > 100 µM | Hs-578T > 100 µM | SF-295 > 100 µM | HCT-116 > 100 µM | NCI-H226 > 100 µM | SNB-19 > 100 µM | MOLT-4 > 100 µM | NCI/ADR-RES > 100 µM | SF-268 > 100 µM | SW-620 > 100 µM | PC-3 > 100 µM | HT-29 > 100 µM | T47D > 100 µM | SK-MEL-2 > 100 µM | NCI-H460 > 100 µM | SF-539 > 100 µM | UO-31 > 100 µM

CC(=O)C1C(=O)C(=O)N(c2ccc([N+](=O)[O-])cc2Cl)C1=O (stereo not given)
inactive: HL-60 93.1 µM | HOP-62 > 100 µM | Hs-578T > 100 µM | SF-295 > 100 µM | HCT-116 > 100 µM | NCI-H226 > 100 µM | SNB-19 > 100 µM | MOLT-4 45.6 µM | NCI/ADR-RES > 100 µM | SF-268 > 100 µM | SW-620 > 100 µM | PC-3 82.2 µM | DU-145 > 100 µM | HT-29 > 100 µM | SK-MEL-2 > 100 µM | NCI-H460 > 100 µM | SF-539 > 100 µM | UO-31 56.1 µM

CCSc1nc(COC(=O)NC)c(COC(=O)NC)n1C
inactive: HL-60 82.6 µM | HOP-62 99.3 µM | RPMI-8226 > 97.9 µM | Hs-578T > 100 µM | SF-295 > 100 µM | HCT-116 > 100 µM | NCI-H226 > 100 µM | SNB-19 > 100 µM | MOLT-4 43.4 µM | NCI/ADR-RES > 100 µM | SF-268 70.1 µM | SW-620 > 100 µM | PC-3 > 82 µM | HT-29 > 100 µM | T47D > 100 µM | SK-MEL-2 > 89.7 µM | NCI-H460 73.1 µM | SF-539 98.9 µM | UO-31 > 95.9 µM

O=[N+]([O-])c1nccn1CC1OC(n2ccnc2[N+](=O)[O-])C(O)C(O)C1O (stereo not given)
inactive: HL-60 > 100 µM | HOP-62 > 100 µM | RPMI-8226 > 100 µM | Hs-578T > 100 µM | HCT-116 > 100 µM | NCI-H226 > 100 µM | SNB-19 > 100 µM | MOLT-4 > 100 µM | SW-620 > 100 µM | PC-3 > 100 µM | HT-29 > 100 µM | T47D 23.9 µM | SK-MEL-2 > 100 µM | NCI-H460 > 100 µM | UO-31 > 100 µM
